Source: patent publication US8815881B2 (Hoffmann-La Roche Inc., priority 2010, dated 2014)
pIC50: −log10 of the molar value.

The molecules below were run against BACE2 enzyme ectodomain (Homo sapiens (Human), UniProt Q9Y5Z0) (assay: Fluorescent-peptide cleavage assay for BACE2 inhibition). Conditions: assay b): fluorescent-peptide cleavage, pH 4.5 (superscript b).
Type: biochemical
Protocol: b) Fluorescent-Peptide Cleavage Assay for BACE2 Inhibition
BACE2 enzyme ectodomain (derived from plasmid “pET17b-T7-hu proBACE2”) was prepared as described in Ostermann et al., “Crystal Structure of Human BACE2 in Complex with a Hydroxyethylamine Transition-state Inhibitor”, Journal of Molecular Biology 2006, 355, 249-261. The pro-enzyme was stored at 4° C. at a concentration of 70 μg/ml.
A fluorescent peptide with the amino acid sequence WS EVNLD AEFRC-MR121 was synthesised and a stock solution of 1.5 mM in DMSO prepared and stored at −20° C. MR121 is a fluorophore with an excitation wavelength of 630 nm and emission wavelength of 695 nm. The MR121 fluorescence is quenched by the N-terminal tryptophan until the peptide is cleaved by BACE2.
Assays were all made in a Corning 384-well black polystyrene non-binding surface microtitre plate with clear flat bottom and using a Plate:Vision (Perkin Elmer) fluorescence reader. To perform the assay an 80 nM solution of BACE2 was prepared in assay buffer (assay buffer is 100 mM Na-acetate; 20 mM EDTA; 0.05% BSA; pH 4.5) and incubated at room temperature for 1 hour to activate the enzyme. 39 μl of the activated BACE2 was placed in each assay well, followed by 1 μl compound to be tested at an appropriate concentration in 100% DMSO. The plate was then mixed and incubated for 10 minutes at room temperature. To start the assay, 10 μl of a 1.5 μM solution fluorescent peptide in assay buffer was added and the fluorescence intensity in the assay mixture measured at 695 nm with an excitation wavelength of 630 nm for 30 minutes.
The assay readout is the rate of change of fluorescence intensity giving a relative measure of BACE2 activity. Small values correspond to high inhibition and larger values to low inhibition. To determine IC50 values (i.e. the concentration inhibiting the enzyme activity by 50%) of the compound for BACE2, typically, 15 assays were made with a range of concentrations chosen empirically to give low, high and intermediate inhibition of the protease. IC50 values were determined using these assay values generated for a range of inhibitor concentrations and the curve fitting software XLfit (IDBS) using the Sigmoidal Dose-Response Model.

Chain of BACE2 enzyme ectodomain (Q9Y5Z0 63-473): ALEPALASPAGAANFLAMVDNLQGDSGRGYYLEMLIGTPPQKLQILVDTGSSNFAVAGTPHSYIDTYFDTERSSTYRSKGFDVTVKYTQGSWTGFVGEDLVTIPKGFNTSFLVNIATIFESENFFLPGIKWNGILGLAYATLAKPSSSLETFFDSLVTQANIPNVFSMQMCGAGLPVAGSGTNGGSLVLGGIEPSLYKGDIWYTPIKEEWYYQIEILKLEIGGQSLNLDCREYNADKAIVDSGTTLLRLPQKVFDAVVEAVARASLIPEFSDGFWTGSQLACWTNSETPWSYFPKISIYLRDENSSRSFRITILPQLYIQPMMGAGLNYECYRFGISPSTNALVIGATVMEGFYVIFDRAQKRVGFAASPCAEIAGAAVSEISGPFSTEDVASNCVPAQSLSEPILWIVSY

SMILES | pIC50
CN1C(=O)C(C)(C)[C@@](C)(c2cc(Nc3ccc(C#N)cc3OC(F)(F)F)ccc2F)N=C1N [Example 161, (S)-4-(3-(2-Amino-1,4,5,5-tetramethyl-6-oxo-1,4,5,6-tetrahydropyrimidin-4-yl)-4-fluorophenylamino)-3-(trifluoromethoxy)benzonitrile] | 7.89
CN1C(=O)C(C)(C)[C@@](C)(c2cc(Nc3ccc(C(F)(F)F)nc3)ccc2F)N=C1N [Example 173, (S)-2-Amino-6-(2-fluoro-5-(6-(trifluoromethyl)pyridin-3-ylamino)phenyl)-3,5,5,6-tetramethyl-5,6-dihydropyrimidin-4(3H)-one] | 6.40
CN1C(=O)C(C)(C)[C@@](C)(c2cc(Nc3ccc(C#N)cc3Cl)ccc2F)N=C1N [Example 168, 4-[3-((S)-2-Amino-1,4,5,5-tetramethyl-6-oxo-1,4,5,6-tetrahydro-pyrimidin-4-yl)-4-fluoro-phenylamino]-3-chloro-benzonitrile] | 7.85
CN1C(=O)C(C)(C)[C@@](C)(c2cc(Nc3cc(F)c(C#N)cc3F)ccc2F)N=C1N [Example 166, (S)-4-(3-(2-Amino-1,4,5,5-tetramethyl-6-oxo-1,4,5,6-tetrahydropyrimidin-4-yl)-4-fluorophenylamino)-2,5-difluorobenzonitrile] | 7.10
